For assay [1], the system named is P. falciparum (NF54 or 3D7 strain). The assay is described as follows: P. falciparum proliferation assay in infected human blood cells (SYBR Green). Format: cell-based. Particulars: Plasmodium falciparum, Erythrocyte, read-out: EC50 (nM), inhibitory efficacy in delaying P. falciparum proliferation in infected human blood cells. How it is done:
Assay for P. falciparum Proliferation in Infected Human Blood Cells
Compounds of the invention can be assayed to measure their capacity to inhibit proliferation of P. falciparum parasitemia in infected red blood cells. This parasite proliferation assay measures the increase in parasite DNA content using a DNA intercalating dye, SYBR Green® (INVITROGEN®) which has a high affinity for double stranded DNA.
NF54 or 3D7 P. falciparum strain is grown in complete culturing media until parasitemia reaches 3% to 8% with O+ human erythrocytes. […] 20 μl of screening media is dispensed into 384 well assay plates. 50 nl of compounds of the invention (in DMSO), including antimalarial controls (mefloquine, pyrimethamine and artemisinin), are then transferred into the assay plates, as well as DMSO alone to serve as a negative control for inhibition. Then 30 μl of a suspension of a NF54 or 3D7 P. falciparum infected erythrocytes in screening media is dispensed into the assay plates such that the final hematocrit is 2.5% with a final parasitemia of 0.3%. The plates are placed in a 37° C. incubator for 72 hours in a low oxygen environment containing 93% N2, 4% CO2, and 3% O2 gas mixture. 10 μl of lysis buffer (saponin, triton-X, EDTA) containing a 10× solution of SYBR Green I® in RPMI media is dispensed into the plates. The plates are lidded and kept at room temperature overnight for the lysis of the infected red blood cells. The fluorescence intensity is measured (excitation 425 nm, emission 530 nm) using the Envision™ system (Perkin Elmer). The percentage inhibition of 50%, EC50, is calculated for each compound.

Assay [2] concerns Plasmodium berghei line expressing luciferase (Pb-luc) sporozoites. The assay is described as follows: Liver stage P. berghei luciferase proliferation assay in CD81-GFP-HepG2 cells. Format: cell-based. The procedure: Liver Stage P. berghei Luciferase Proliferation Assay
CD81-GFP-HepG2 cells (obtained from the lab of Dominique Mazier) were seeded into GNF custom Greiner plates (1536-well, white, TC-treated, solid bottom). A final density of 3000 cells/well was achieved by dispensing 5 ul per well of a 600,000 cells/mL resuspended in Assay Media (AM; phenol-red free DMEM, 2% FBS, 5×PSG) via a MicroFlo (Biotek; 5 ul dispense cassette). The seeded assay plates were incubated overnight at 37° C. in an incubator with 5% CO2. The following day, a 10 nL volume of compound was transferred acoustically (ECHO 525, Labcyte Inc.) to each well in the assay plate. Sporozoite forms of a Plasmodium berghei line expressing luciferase (Pb-luc) were dissected and purified from infected Anopheles stephensi mosquitoes (provided by the NYU insectary) as previously described by Meister et al. (Science, 2011). Purified sporozoites (spz) were stored at 250 spz/uL in chilled PBS supplemented with 3% BSA. 3 uL of Pb-luc spz solution was dispensed to each assay well using a Bottlevalve equipped with a custom, single-tip dispense head (GNF Systems). Assay plates were centrifuged at 330×g for 3 minutes to pellet the spz, then the assay plates were returned to the 37° C. incubator for 48 h. Luciferase signal, which corresponds with parasite proliferation, was detected by adding 2 uL of BrightGlo (Promega) to each well using the MicroFlo (Biotek; 1 ul cassette). Luminescence was immediately measured on an Envision MultiLabel Plate Reader (PerkinElmer).

[3] abbreviates: infected human erythrocytes, 72 hours, SYBR Green fluorescence.
[4] abbreviates: values marked * in Table 2, CD81-GFP-HepG2 cells, 48 h, luminescence, read-out: EC50 (nM), P. berghei luciferase Proliferation Assay.
Setting [5] is: read-out: EC50, P. berghei luciferase Proliferation Assay.

Like-named read-outs stand apart in the source and are kept apart here.

For `CNC(=O)c1ccc(-c2cnn3ccc(C(=O)N(c4ccc(Cl)cc4)C4CC4)cc23)cn1` [Example 143, N-(4-Chlorophenyl)-N-cyclopropyl-3-(6-(methylcarbamoyl)pyridin-3-yl)pyrazolo[1,5-a]pyridine-5-carboxamide], the EC50 is 12 nM in assay [1] (setting [3]) and 7 nM in assay [2] (setting [4]).
Regarding `CNC(=O)c1ccc(-c2cnn3ccc(C(=O)N(c4ccc(C(F)(F)F)cn4)C(C)C)cc23)cc1` [Example 153, N-Isopropyl-3-(4-(methylcarbamoyl)phenyl)-N-(5-(trifluoromethyl)pyridin-2-yl)pyrazolo[1,5-a]pyridine-5-carboxamide], the EC50 was determined as 88 nM in assay [1] (setting [3]) and 16 nM in assay [2] (setting [4]).
For `CNC(=O)c1ccc(-c2cnn3ccc(C(=O)N(NC)c4ccc(C#N)cc4)cc23)cn1` [Example 92, 5-(5-(1-(4-cyanophenyl)-2-methylhydrazinecarbonyl)pyrazolo[1,5-a]pyridin-3-yl)-N-methyl picolinamide], the EC50 is 24 nM in assay [1] (setting [3]), no more than 20 nM in assay [2] (setting [5]) and 15 nM in assay [2] (setting [4]).
On to `CCN(C(=O)c1ccn2ncc(-c3ccc(C(=O)NC)nc3)c2c1)c1ccc(C(F)(F)F)cn1` [Example 157, N-ethyl-3-(6-(methylcarbamoyl)pyridin-3-yl)-N-(5-(trifluoromethyl)pyridin-2-yl)pyrazolo[1,5-a]pyridine-5-carboxamide], for which the results for the EC50 in assay [1] (setting [3]) and in assay [2] (setting [4]) were 91 nM and 60 nM, respectively.
Regarding `CNC(=O)c1ccc(-c2cnn3ccc(C(=O)N(c4ccc(C#N)cn4)C(C)C)cc23)cn1` [Example 148, N-(5-Cyanopyridin-2-yl)-N-isopropyl-3-(6-(methylcarbamoyl)pyridin-3-yl)pyrazolo[1,5-a]pyridine-5-carboxamide], the values for the EC50 in assay [1] (setting [3]) and in assay [2] (setting [4]) were 67 nM and 18 nM, respectively.
On to `CNC(=O)c1ccc(-c2cnn3ccc(C(=O)N(c4ccc(C#N)c(OC)n4)C4CC4)cc23)cc1` [Example 149, N-(5-Cyano-6-methoxypyridin-2-yl)-N-cyclopropyl-3-(4-(methylcarbamoyl)phenyl)pyrazolo[1,5-a]pyridine-5-carboxamide], for which the EC50 in assay [1] (setting [3]) is 4 nM; in assay [2] (setting [4]) it was 1 nM.
The corresponding values for `CNC(=O)c1ccc(-c2cnn3ccc(C(=O)N(c4ccc(C#N)cn4)C4CCC4)cc23)cn1` [Example 144, N-(5-Cyanopyridin-2-yl)-N-cyclobutyl-3-(6-(methylcarbamoyl)pyridin-3-yl)pyrazolo[1,5-a]pyridine-5-carboxamide] are 27 nM and 22 nM.
On to `CNC(=O)c1ccc(-c2cnn3ccc(C(=O)N(c4ccc(C#N)cn4)C4CC4)cc23)nc1` [Example 133, N-(5-Cyanopyridin-2-yl)-N-cyclopropyl-3-(5-(methylcarbamoyl)pyridin-2-yl)pyrazolo[1,5-a]pyridine-5-carboxamide], for which the EC50 amounted to 58 nM in assay [1] (setting [3]) and 34 nM in assay [2] (setting [4]).
On the same counts, the results for `CNC(=O)c1ccc(-c2cnn3ccc(C(=O)N(c4ccc(C(F)(F)F)cn4)C4CCC4)cc23)cc1` [Example 160, N-cyclobutyl-3-(4-(methylcarbamoyl)phenyl)-N-(5-(trifluoromethyl)pyridin-2-yl)pyrazolo[1,5-a]pyridine-5-carboxamide] are 4 nM and 4 nM.
For `CNC(=O)c1ccc(-c2cnn3ccc(S(=O)(=O)N(C)c4ccc(C#N)cn4)cc23)cc1` [Example 163, 4-(5-(N-(5-Cyanopyridin-2-yl)-N-methylsulfamoyl)pyrazolo[1,5-a]pyridin-3-yl)-N-methyl benzamide], the values for the EC50 in assay [1] (setting [3]) and in assay [2] (setting [4]) were 4 nM and 2 nM, respectively.
As to `CNC(=O)c1ccc(-c2cnn3ccc(C(=O)N(c4ccc(C(F)(F)F)cn4)C4CCC4)cc23)cn1` [Example 161, N N-cyclobutyl-3-(6-(methylcarbamoyl)pyridin-3-yl)-N-(5-(trifluoromethyl)pyridin-2-yl)pyrazolo[1,5-a]pyridine-5-carboxamide], the EC50 in assay [1] (setting [3]) worked out at 68 nM; in assay [2] (setting [4]), 41 nM.
The corresponding values for `CCN(C(=O)c1ccn2ncc(-c3ccc(C(=O)NC)nc3)c2c1)c1ccc(F)cn1` [Example 159, N-ethyl-N-(5-fluoropyridin-2-yl)-3-(6-(methylcarbamoyl)pyridin-3-yl)pyrazolo[1,5-a]pyridine-5-carboxamide] are 56 nM and 43 nM.
For the compound `CNC(=O)c1ccc(-c2cnn3ccc(C(=O)N(c4ccc(C#N)cc4)C4CC4)cc23)cn1` [Example 137, N-(4-Cyanophenyl)-N-cyclopropyl-3-(6-(methylcarbamoyl)pyridin-3-yl)pyrazolo[1,5-a]pyridine-5-carboxamide], the EC50 in assay [1] (setting [3]) is 12 nM; in assay [2] (setting [4]) it was 10 nM.
As for `CNC(=O)c1ccc(-c2cnn3ccc(N(C(=O)c4ccc(C#N)cn4)C4CC4)cc23)cc1` [Example 147, 5-Cyano-N-cyclopropyl-N-(3-(4-(methylcarbamoyl)phenyl)pyrazolo[1,5-a]pyridin-5-yl) picolinamide], the EC50 was 814 nM in assay [1] (setting [3]) and 151 nM in assay [2] (setting [4]).
The corresponding values for `CNC(=O)c1ccc(-c2cnn3ccc(C(=O)N(c4ccc(F)cn4)C(C)C)cc23)cc1` [Example 151, N-(5-fluoropyridin-2-yl)-N-isopropyl-3-(4-(methylcarbamoyl)phenyl)pyrazolo[1,5-a]pyridine-5-carboxamide] are 67 nM and 7 nM.
As to `CCN(C(=O)c1ccn2ncc(-c3ccc(C(=O)NC)cc3)c2c1)c1ccc(F)cn1` [Example 95, N-ethyl-N-(5-fluoropyridin-2-yl)-3-(4-(methylcarbamoyl)phenyl)pyrazolo[1,5-a]pyridine-5-carboxamide], the EC50 in assay [1] (setting [3]) is 23 nM; in assay [2] (setting [5]), no more than 20 nM; in assay [2] (setting [4]) it was 5 nM.
For the compound `CNC(=O)c1ccc(-c2cnn3ccc(C(=O)N(c4ccc(C#N)cn4)C(C)C)cc23)nc1` [Example 154, N-(5-cyanopyridin-2-yl)-N-isopropyl-3-(5-(methylcarbamoyl)pyridin-2-yl)pyrazolo[1,5-a]pyridine-5-carboxamide], the EC50 in assay [1] (72 h) amounted to 200 nM; in assay [2] (setting [4]) it was 36 nM.
In the case of `CNC(=O)c1ccc(-c2cnn3ccc(C(=O)N(c4ccc(C(F)(F)F)cn4)C(C)C)cc23)cn1` [Example 152, N-Isopropyl-3-(6-(methylcarbamoyl)pyridin-3-yl)-N-(5-(trifluoromethyl)pyridin-2-yl)pyrazolo[1,5-a]pyridine-5-carboxamide], the EC50 in assay [1] (setting [3]) was 228 nM; in assay [2] (setting [4]) it was 182 nM.
